Assay results as given in patent publication US20140024132A1, “METHODS AND SYSTEMS USING INTEGRATED METABOLOMICS AND PHARMACOKINETICS FOR MULTI-COMPONENT DRUG EVALUATION” (priority 2010, published 2014).

How the values were obtained:
[1] = Urine levels of absorbed (bioavailable) Pu-erh tea components after a single Pu-erh tea intake, UPLC-QTOFMS and GC-TOFMS profiling; assay type: in vivo, human; details: for FC (fold change): absorbed Pu-erh tea metabolite, human urine
Experimental: (§1) Participants received a dose equivalent to 5 cups of commercially prepared tea. Twenty healthy men (n=10) and women (n=10) whose mean age was 25±2 years (range 22-32) were enrolled in this study, and written consent was obtained from each participant.
(§2) Volunteers were provided with identical standard meals three times per day during the experiment (e.g., breakfast: milk and bread; lunch: beef and vegetables; dinner: pork and cabbage). […] Urine samples were stored at −80° C. before analysis.
(§3) The tea infusion used in this study and the collected urine samples were centrifuged at 13,000 rpm for 10 min at 4° C., and the resulting supernatants were immediately stored at −80° C. pending UPLC-QTOFMS analysis. Ultrapure water (500 μL) was added to the tea or urine sample (500 μL) and vortexed for 1 min. The sample was then filtered through a syringe filter (0.22 μm) for UPLC-QTOFMS analysis.; incorporated by reference herein in its entirety.
(§4) The tea infusion (100 μL) described in Example 2 and urine samples (100 μL) were spiked with two internal standard solutions (10 μL-2-chlorophenylalanine in water, 0.3 mg/ml; 10 μL heptadecanoic acid in methanol, 1 mg/mL), and vortexed for 10 seconds. The mixed solution was extracted with 300 μL of methanol:chloroform (v/v 3:1) and vortexed for 30 seconds. After storing for 10 min at −20° C., the samples were centrifuged at 10,000 rpm for 10 min. An aliquot of the 300 μL supernatant was transferred to a glass sampling vial to vacuum dry at room temperature. The residue was derivatized using a two-step procedure. First, 80 μL methoxyamine (15 mg/mL in pyridine,) was added to the vial and kept at 30° C. for 90 min followed by 80 μL BSTFA (1% TMCS) at 70° C. for 60 min. See protocols set forth in Ni et al., FEBS Lett. 581: 707-711 (2007).; incorporated by reference herein in its entirety.
(§5) UPLC: Tea and urine metabolite profiling were performed using a Waters ACQUITY UPLC system equipped with a binary solvent delivery manager and a sample manager (Waters Corporation, Milford, Mass., USA), coupled to a Micromass Q-TOF Premier mass spectrometry equipped with an electrospray interface (Waters Corporation, Milford, M A, USA). Chromatographic separations were performed on a 2.1×100 mm 1.7 μm ACQUITY BEH C18 chromatography column. The column was maintained at 45° C. and eluted with a 1-99% acetonitrile (0.1% (v/v) formic acid)-aqueous formic acid (0.1% (v/v) formic acid) gradient over 10 min at a flow rate of 0.40 mL/min. A 5 μL aliquot sample was injected onto the column.
(§6) Mass Spectrometry: The mass accuracy analysis and detailed MS parameters were optimized according to our prior studies, which is incorporated herein in its entirety. During metabolite profiling experiments, centroid data was acquired for each sample from 50 to 1000 Da with a 0.10 sec scan time and a 0.01 sec interscan delay over a 10 min analysis time. A metabonomics MS System Test Mixture including acetaminophen, tolbutamide, 3′-azido-3′-deoxythymidine, reserpine, verapamil and coumarin was used as chromatographic reference and mass accuracy quality control. This test mixture was injected every ten injections. The mass spectrometer was operated in positive ion mode. The desolvation temperature was set to 400° C. at a flow rate of 700 L/hr and source temperature of 100° C. The capillary and cone voltages were set to 3500 and 45 V, respectively. The data was collected between 50-1000 m/z with alternating collision energy, at 5 eV for precursor ion information generation and a collision profile from 10-40 eV for fragment ion information. The Q-TOF Premier™ was operated in v mode with 10,000 mass resolving power. Data were centroided during acquisition using independent reference lock-mass ions via the LockSpray™ interface to ensure mass accuracy and reproducibility. Leucine-enkephalin was used as the reference compound at a concentration of 50 pg/μL and an infusion flow rate of 0.05 mL/min.

[2] = Pearson correlation of absorbed, biotransformed plant metabolites and altered endogenous metabolites in urine; assay type: in vivo, human; details: ρ≧0.7 or ρ≦−0.7, urine, FIG. 13
Experimental: Similarly, in order to study the relationship of dynamic response of metabolites along with the time course, mean value of each metabolite was calculated at each time point (0 h→1 h→2 h→3 h→6 h→12 h→24 h). A new metabolite vector with 7 mean values calculated at 7 different time points, representing the average response, was constructed and the Pearson correlation coefficients were calculated similarly with the pair-wise comparison of metabolites.

[3] = test system: human metabolite endpoints; assay: Urinary metabolomic response during 6-week study (24 h, 2 week daily Pu-erh tea intake, 2 week wash-out) vs pre-dose, OPLS-DA and S-plot; assay type: in vivo; details: 2 week of Pu-erh tea daily intake vs pre-dose, human urine
Experimental: as §2

[4] = test system: endogenous urinary metabolite profiles; assay: Altered endogenous urinary metabolites after a single Pu-erh tea intake, UPLC-QTOFMS and GC-TOFMS profiling; assay type: in vivo; details: human urine
Experimental: as §1, §2, §3, §4, §5, §6

[5] = Urine levels of biotransformed Pu-erh tea metabolites (produced in vivo) after a single Pu-erh tea intake, UPLC-QTOFMS and GC-TOFMS profiling; parameters: species or system human
Experimental: Approximately 1 kg of 5-year-old Pu-erh tea was mixed to produce a homogeneous sample, and then ground into a fine powder and filtered through a 20 mesh screen. The Pu-erh tea was prepared by infusing 10 g powder in 200 mL boiling water for 10 min, followed by straining. Participants received a dose equivalent to 5 cups of commercially prepared tea. Twenty healthy men (n=10) and women (n=10) whose mean age was 25±2 years (range 22-32) were enrolled in this study, and written consent was obtained from each participant.
Volunteers were provided with identical standard meals three times per day during the experiment (e.g., breakfast: milk and bread; lunch: beef and vegetables; dinner: pork and cabbage). Urine samples of 12 healthy men (n=6) and women (n=6) selected from the 20 participants were collected just before breakfast including the 200 mL Pu-erh tea and at 1 h, 3 h, 6 h, 9 h, 12 h, and 24 h thereafter. Spot urine samples of all 20 participants were collected daily between 11:00 and 11:30 a.m. during a 6-week period that included a 2-week baseline phase, a 2-week daily Pu-erh tea ingestion phase, and a 2-week post-dosing phase. […] Urine samples were stored at −80° C. before analysis.
as §3, §4, §5
Mass Spectrometry: The mass accuracy analysis and detailed MS parameters were optimized according to our prior studies, which is incorporated herein in its entirety. During metabolite profiling experiments, centroid data was acquired for each sample from 50 to 1000 Da with a 0.10 sec scan time and a 0.01 sec interscan delay over a 10 min analysis time. A metabonomics MS System Test Mixture including acetaminophen, tolbutamide, 3′-azido-3′-deoxythymidine, reserpine, verapamil and coumarin was used as chromatographic reference and mass accuracy quality control. This test mixture was injected every ten injections. The mass spectrometer was operated in positive ion mode. […]

[6] = 1 h after Pu-erh tea intake vs pre-dose
[7] = 3 h after Pu-erh tea intake vs pre-dose
[8] = 6 h after Pu-erh tea intake vs pre-dose
[9] = 9 h after Pu-erh tea intake vs pre-dose
[10] = 12 h after Pu-erh tea intake vs pre-dose
[11] = 24 h after Pu-erh tea intake vs pre-dose

| Compound | FC (fold change) ([1]; 1 h post-dose vs pre-dose) | FC (fold change) ([1]; 3 h post-dose vs pre-dose) | FC (fold change) ([1]; 6 h post-dose vs pre-dose) | FC (fold change) ([1]; 9 h post-dose vs pre-dose) | FC (fold change) ([1]; 12 h post-dose vs pre-dose) | FC (fold change) ([1]; 24 h post-dose vs pre-dose) | further results |
| --- | --- | --- | --- | --- | --- | --- | --- |
| Cc1cnc(C)c(O)c1C=O [5-Deoxypyridoxal] | 2.56 | 3.69 | 3.68 | 2.35 | 0.91 | 0.81 | – |
| O=C(O)c1cccnc1 [Nicotinic acid] | 14.31 | 62.95 | 78.98 | 63.95 | 49.02 | 27.31 | – |
| Cn1c(=O)c2c(ncn2C)n(C)c1=O [Caffeine] | 454.37 | 573.74 | 437.21 | 277.02 | 160.06 | 46.28 | correlation with its biodegradated metabolites paraxanthine, theophylline, hippuric acid and 3-hydroxyphenylacetic acid [2]: positively corrected; time at which concentration reached maximum levels in urine ([1]; absorbed plant metabolites, after oral administration of Pu-erh tea, FIG. 10A): 1 h; time at which cleared away from urine ([1]; absorbed plant metabolites, post-dose, FIG. 10A): 9 h |
| O=C(O)CC(O)(CC(=O)O)C(=O)O [Citric acid] | 1.42 | 1.76 | 1.59 | 1.20 | 1.42 | 1.17 | – |
| O=C(O)c1cc(O)cc(O)c1 [3,5-hydroxy benzoic acid] | – | – | – | 0.42 | 0.47 | 0.20 | – |
| O=C(O)CCC(=O)O [Succinate] | 1.15 | 0.90 | 0.74 | 0.57 | 0.84 | 0.93 | – |
| NCC(=O)O [Glycine] | 1.28 | 1.67 | 2.32 | 1.53 | 1.77 | 1.04 | – |
| 3-chlorotyrosine-2-aminobenzoic acid | – | – | – | – | – | – | change of urinary excretion / concentration [3]: decreased |
| COc1cc(CC(=O)O)ccc1O [4-Hydroxy-3-methoxyphenylacetic acid] | – | – | – | – | – | – | FC (fold change) [4, 6]: 0.39; FC (fold change) [4, 7]: 0.11; FC (fold change) [4, 8]: 0.27; FC (fold change) [4, 9]: 0.55; FC (fold change) [4, 10]: 0.85; FC (fold change) [4, 11]: 1.12 |
| O[C@H]1[C@H](O)[C@@H](O)[C@H](O)[C@@H](O)[C@H]1O [inositol] | – | – | – | – | – | – | change of urinary excretion / concentration [3]: increased |
| N[C@@H](Cc1c[nH]c2ccc(O)cc12)C(=O)O [5-hydroxytryptophan] | – | – | – | – | – | – | change of urinary excretion / concentration [3]: increased |
| NC(C(=O)O)C(=O)O [Aminomalonic acid] | – | – | – | – | – | – | FC (fold change) [4, 6]: 1.90; FC (fold change) [4, 7]: 3.09; FC (fold change) [4, 8]: 3.09; FC (fold change) [4, 9]: 0.45; FC (fold change) [4, 10]: 0.57; FC (fold change) [4, 11]: 0.35 |
| Cn1cnc2c1c(=O)[nH]c(=O)n2C [Theobromine] | 4.04 | 6.76 | 7.75 | 5.42 | 4.43 | 2.67 | – |
| COc1ccc(CC(=O)O)cc1 [4-methoxyphenylacetic acid] | – | – | – | – | – | – | change of urinary excretion / concentration [3]: increased |
| Oc1ccc2[nH]c(O)cc2c1 [2,5-dihydroxy-1H-indole] | – | – | – | – | – | – | change of urinary excretion / concentration [3]: decreased |
| NCCCC(=O)O [4-Aminobutanoic acid] | 3.95 | 5.14 | 24.12 | 39.08 | 100.29 | 49.03 | FC (fold change) [4, 6]: 3.95; FC (fold change) [4, 7]: 5.14; FC (fold change) [4, 8]: 24.12; FC (fold change) [4, 9]: 39.08; FC (fold change) [4, 10]: 100.29; FC (fold change) [4, 11]: 49.03 |
| CC(C)[C@H](N)C(=O)O [Valine] | – | – | – | – | – | – | FC (fold change) [4, 6]: 2.58; FC (fold change) [4, 7]: 1.25; FC (fold change) [4, 8]: 2.16; FC (fold change) [4, 9]: 2.32; FC (fold change) [4, 10]: 2.76; FC (fold change) [4, 11]: 1.38 |
| CCN [Ethylamine] | – | – | – | – | – | – | FC (fold change) [5, 7]: 3.10; FC (fold change) [5, 8]: 3.87; FC (fold change) [5, 9]: 2.65; FC (fold change) [5, 10]: 3.09; FC (fold change) [5, 11]: 1.58; FC (fold change) ([5]; l h after Pu-erh tea intake vs pre-dose): 1.73 |
| Cn1c(=O)c2[nH]cnc2n(C)c1=O [Theophylline] | 11.62 | 42.69 | 54.55 | 45.99 | 38.67 | 19.22 | – |
| Oc1ccccc1 [Phenol] | – | – | – | – | – | – | FC (fold change) [4, 6]: 1.04; FC (fold change) [4, 7]: 1.22; FC (fold change) [4, 8]: 1.43; FC (fold change) [4, 9]: 1.14; FC (fold change) [4, 10]: 1.32; FC (fold change) [4, 11]: 2.22 |
| COc1ccccc1O [2-Methoxyphenol] | – | – | – | – | – | – | FC (fold change) [4, 6]: 0.48; FC (fold change) [4, 7]: 0.31; FC (fold change) [4, 8]: 0.31; FC (fold change) [4, 9]: 0.41; FC (fold change) [4, 10]: 0.59; FC (fold change) [4, 11]: 0.61 |
